Experimental data published in patent US20090047243A1, “COMBINATIONS FOR THE TREATMENT OF B-CELL PROLIFERATIVE DISORDERS” (priority 2007, published 2009).

Assays:
[1] = test system: RPMI-8226, H929, MM.1S and MM.1R MM cell lines; assay: Anti-proliferation assay, statements across MM cell lines; type: cell-based, human; conditions: RPMI-8226, H929, MM.1S and MM.1R MM cell lines
Description: The MM.1S, MM.1R, H929, MOLP-8, EJM, INA-6, ANBL6, KSM-12-PE, OPM2, and RPMI-8226 multiple myeloma cell lines, as well as the Burkitt's lymphoma cell line GA-10 and the non-Hodgkin's lymphoma cell lines Farage, SU-DHL6, and Karpas 422 were cultured at 37° C. and 5% CO2 in RPMI-1640 media supplemented with 10% FBS. ANBL6 and INA-6 culture media was also supplemented with 10 ng/ml IL-6. The OCI-ly10 cell line was cultured using RPMI-1640 media supplemented with 20% human serum. MM.1S, MM.1R, OCI-ly10, Karpas 422, and SU-DHL6 cells were provided by the Dana Farber Cancer Institute. H929, RPMI-8226, GA-10, and Farage cells were from ATCC (Cat #'s CCL-155, CRL-9068, CRL-2392 and CRL-2630 respectively). MOLP-8, EJM, KSM-12-PE, and OPM2 were from DSMZ. The ANBL6 and INA-6 cell lines were provided by the M. D. Anderson Cancer Research Center.
Compounds were prepared in DMSO at 1000× the highest desired concentration. Master plates were generated consisting of serially diluted compounds in 2- or 3-fold dilutions in 384-well format. For single agent dose response curves, the master plates consisted of 9 individual compounds at 12 concentrations in 2- or 3-fold dilutions. For combination matrices, master plates consisted of individual compounds at 6 or 9 concentrations at 2- or 3-fold dilutions.
Cells were added to 384-well plates 24 hours prior to compound addition such that each well contained 2000 cells in 35 μL of media. Master plates were diluted 100× (1 μL into 100 μL) into 384-well dilution plates containing only cell culture media. 4.5 μL from each dilution plate was added to each assay plate for a final dilution of 1000×. To obtain combination data, two master plates were diluted into the assay plates. Following compound addition, assay plates were kept at 37° C. and 5% CO2 for 72 hours. Thirty microliters of ATPLite (Perkin Elmer) at room temperature was then added to each well. Final amount of ATP was quantified within 30 minutes using ATPLite luminescent read-out on an Envision 2103 Multilabel Reader (Perkin Elmer). Measurements were taken at the top of the well using a luminescence aperture and a read time of 0.1 seconds per well.
The Loewe additivity model was used to quantify combination effects. Combinations were ranked initially by Additivity Excess Volume, which is defined as ADD Volume=ΣCX, CY (Idata−ILoewe). where ILoewe(CX, CY) is the inhibition that satisfies (CX/ECX)+(CY/ECY)=1, and ECX,Y are the effective concentrations at ILoewe for the single agent curves. A “Synergy Score” was also used, where the Synergy Score S=log fX log fY ΣIdata(Idata−ILoewe), summed over all non-single-agent concentration pairs, and where log fX,Y is the natural logarithm of the dilution factors used for each single agent. This effectively calculates a volume between the measured and Loewe additive response surfaces, weighted towards high inhibition and corrected for varying dilution factors. An uncertainty σS was calculated for each synergy score, based on the measured errors for the Idata values and standard error propagation.

[2] = test system: patient CLL cells; assay: Apoptosis assay (Hoechst 33342, flow cytometry, 48 h); type: cell-based, human; parameters: unit not given here
Text: Blood samples were obtained in heparinized tubes with IRB-approved consent from flow cytometry-confirmed B-CLL patients that were either untreated or for whom at least 1 month had elapsed since chemotherapy. Patients with active infections or other serious medical conditions were not included in this study. Patients with white blood cell counts of less than 15,000/μl by automated analysis were excluded from this study. Whole blood was layered on Ficoll-Hystopaque (Sigma), and peripheral blood mononuclear cells (PBMC) isolated after centrification. […] One million cells were stained with anti-CD5-PE and anti-CD19-PE-Cy5 (Becton Dickenson, Franklin Lakes N.J.). The percentage of B-CLL cells was defined as the percentage of cells doubly expressing CD5 and CDl9, as determined by flow cytometry. […] Compound master plates were diluted 1:50 into complete media to create working compound dilutions. Compound crosses were then created by diluting two working dilution plates 1:10 into each plate of cells. […] Hoechst 33342 (Molecular Probes, Eugene Oreg.) at a final concentration of 0.25 μg/1 mL was added to each well, and the cells incubated at 37° C. for an additional ten minutes before being placed on ice until analysis. Plates were then analyzed on a LSR-II flow cytometer (Becton Dickenson, Franklin Lakes, N.J.) equipped with the High Throughput Sampling (HTS) option in high throughput mode. […] The apoptotic fraction was calculated using FlowJo software (Tree Star Inc., Ashland, Oreg.) after excluding debris by a FSC/SSC gate and subsequently gating for cells that accumulate the Hoechst dye.

For `CNC(=O)[C@H]1O[C@@H](n2cnc3c(NCc4cccc(I)c4)ncnc32)[C@H](O)[C@@H]1O` [IB-MECA, N^6-(3-iodobenzyl)-5′-N-methylcarboxamidoadenosine], the “activity and synergy of adenosine receptor agonists” value (shortened to “activity and synergy”) [1] was “active and synergistic”.

With `OC[C@H]1O[C@H](n2cnc3c(NC4CC5CCC4C5)ncnc32)[C@H](O)[C@@H]1O` (stereo partly drawn) [(S)-ENBA, S-N^6-(2-endo-norbornyl)adenosine] the “activity and synergy” value [1] was “active and synergistic”.

`CNC(=O)[C@H]1O[C@@H](n2cnc3c(NCc4cccc(I)c4)nc(Cl)nc32)[C@H](O)[C@@H]1O` [chloro-IB-MECA, 2-chloro-N^6-(3-iodobenzyl)-5′-N-methylcarboxamidoadenosine] was tested, and the “activity and synergy” value [1] was “active and synergistic”.

`CCNC(=O)[C@H]1O[C@@H](n2cnc3c(N)nc(NCCc4ccc(CCC(=O)O)cc4)nc32)[C@H](O)[C@@H]1O` [CGS-21680, 2-(4-(2-carboxyethyl)phenethylamino)-5′-N-ethylcarboxamidoadenosine] showed an Induction of apoptosis ([2]; CGS-21680 0.05 μM, Roflumilast 0 μM (Table 50)) of 12, an Induction of apoptosis ([2]; CGS-21680 0.05 μM, Trequinsin 0 μM (Table 51)) of 16 and an Induction of apoptosis ([2]; CGS-21680 0.15 μM, Roflumilast 0 μM (Table 50)) of 15. For the same compound, the Induction of apoptosis ([2]; CGS-21680 0.15 μM, Trequinsin 0 μM (Table 51)) was 16, the Induction of apoptosis ([2]; CGS-21680 […], Roflumilast 0 μM (Table 50)) was 25 and the Induction of apoptosis ([2]; CGS-21680 […], Trequinsin 0 μM (Table 51)) was 27.

For `OC[C@H]1O[C@@H](n2cnc3c(NC4CCCC4)nc(Cl)nc32)[C@H](O)[C@@H]1O` [2-chloro-N-6-cyclopentyladenosine, 2-chloro-N^6-cyclopentyladenosine], the “activity and synergy” value [1] was “active and synergistic”.
